# Experiments:
# [1] = molecular target: Casein kinase I isoform alpha (Homo sapiens) (UniProt P48729); assay: Inhibition of CK1 assessed as residual activity of enzyme at 25 uM
# [2] = molecular target: T1, Serine/threonine-protein kinase TAO1 (Homo sapiens) (UniProt Q7L7X3); assay: Inhibition of TAO1 assessed as residual activity of enzyme at 25 uM
# T1 sequence (whole entry): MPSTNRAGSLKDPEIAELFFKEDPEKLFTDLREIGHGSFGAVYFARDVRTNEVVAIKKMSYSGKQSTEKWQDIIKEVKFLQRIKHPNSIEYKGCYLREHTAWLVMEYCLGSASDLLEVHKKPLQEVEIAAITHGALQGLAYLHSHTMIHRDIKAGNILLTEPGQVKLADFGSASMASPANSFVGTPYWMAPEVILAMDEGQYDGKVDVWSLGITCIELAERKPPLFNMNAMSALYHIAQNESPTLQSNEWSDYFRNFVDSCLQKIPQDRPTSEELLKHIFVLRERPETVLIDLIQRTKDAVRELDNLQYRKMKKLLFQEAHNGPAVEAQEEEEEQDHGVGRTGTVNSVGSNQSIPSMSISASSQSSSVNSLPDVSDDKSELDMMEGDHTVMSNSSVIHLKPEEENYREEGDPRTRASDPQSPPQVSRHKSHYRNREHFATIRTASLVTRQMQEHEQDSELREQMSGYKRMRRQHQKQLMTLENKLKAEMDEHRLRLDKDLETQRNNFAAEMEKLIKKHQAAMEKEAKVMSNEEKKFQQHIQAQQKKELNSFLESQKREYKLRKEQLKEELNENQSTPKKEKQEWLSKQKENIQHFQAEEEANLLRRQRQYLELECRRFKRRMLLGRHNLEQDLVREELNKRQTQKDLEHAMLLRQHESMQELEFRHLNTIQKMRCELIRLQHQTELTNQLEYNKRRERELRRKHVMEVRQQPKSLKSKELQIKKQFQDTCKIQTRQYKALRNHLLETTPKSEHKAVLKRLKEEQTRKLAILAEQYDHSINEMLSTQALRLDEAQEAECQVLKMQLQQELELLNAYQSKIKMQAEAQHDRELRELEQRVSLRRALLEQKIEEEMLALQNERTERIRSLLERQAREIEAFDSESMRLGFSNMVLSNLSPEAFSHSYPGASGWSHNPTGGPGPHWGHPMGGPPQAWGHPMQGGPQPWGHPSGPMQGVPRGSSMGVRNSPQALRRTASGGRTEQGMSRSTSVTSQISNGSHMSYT
# [3] = molecular target: Mitogen-activated protein kinase kinase kinase 9 (Homo sapiens) (UniProt P80192); assay: Inhibition of MLK1 assessed as residual activity of enzyme at 25 uM
# [4] = molecular target: T2, Cyclin-dependent kinase 5/CDK5 activator 1 (Homo sapiens) (UniProt Q00535+Q15078); assay: Inhibition of CDK5/p25 assessed as residual activity of enzyme at 25 uM; format: protein-complex assay
# [5] = molecular target: T3, Mitogen-activated protein kinase kinase kinase 5 (Homo sapiens) (UniProt Q99683); assay: Inhibition of ASK1 assessed as residual activity of enzyme at 10 uM
# T3 sequence (whole entry): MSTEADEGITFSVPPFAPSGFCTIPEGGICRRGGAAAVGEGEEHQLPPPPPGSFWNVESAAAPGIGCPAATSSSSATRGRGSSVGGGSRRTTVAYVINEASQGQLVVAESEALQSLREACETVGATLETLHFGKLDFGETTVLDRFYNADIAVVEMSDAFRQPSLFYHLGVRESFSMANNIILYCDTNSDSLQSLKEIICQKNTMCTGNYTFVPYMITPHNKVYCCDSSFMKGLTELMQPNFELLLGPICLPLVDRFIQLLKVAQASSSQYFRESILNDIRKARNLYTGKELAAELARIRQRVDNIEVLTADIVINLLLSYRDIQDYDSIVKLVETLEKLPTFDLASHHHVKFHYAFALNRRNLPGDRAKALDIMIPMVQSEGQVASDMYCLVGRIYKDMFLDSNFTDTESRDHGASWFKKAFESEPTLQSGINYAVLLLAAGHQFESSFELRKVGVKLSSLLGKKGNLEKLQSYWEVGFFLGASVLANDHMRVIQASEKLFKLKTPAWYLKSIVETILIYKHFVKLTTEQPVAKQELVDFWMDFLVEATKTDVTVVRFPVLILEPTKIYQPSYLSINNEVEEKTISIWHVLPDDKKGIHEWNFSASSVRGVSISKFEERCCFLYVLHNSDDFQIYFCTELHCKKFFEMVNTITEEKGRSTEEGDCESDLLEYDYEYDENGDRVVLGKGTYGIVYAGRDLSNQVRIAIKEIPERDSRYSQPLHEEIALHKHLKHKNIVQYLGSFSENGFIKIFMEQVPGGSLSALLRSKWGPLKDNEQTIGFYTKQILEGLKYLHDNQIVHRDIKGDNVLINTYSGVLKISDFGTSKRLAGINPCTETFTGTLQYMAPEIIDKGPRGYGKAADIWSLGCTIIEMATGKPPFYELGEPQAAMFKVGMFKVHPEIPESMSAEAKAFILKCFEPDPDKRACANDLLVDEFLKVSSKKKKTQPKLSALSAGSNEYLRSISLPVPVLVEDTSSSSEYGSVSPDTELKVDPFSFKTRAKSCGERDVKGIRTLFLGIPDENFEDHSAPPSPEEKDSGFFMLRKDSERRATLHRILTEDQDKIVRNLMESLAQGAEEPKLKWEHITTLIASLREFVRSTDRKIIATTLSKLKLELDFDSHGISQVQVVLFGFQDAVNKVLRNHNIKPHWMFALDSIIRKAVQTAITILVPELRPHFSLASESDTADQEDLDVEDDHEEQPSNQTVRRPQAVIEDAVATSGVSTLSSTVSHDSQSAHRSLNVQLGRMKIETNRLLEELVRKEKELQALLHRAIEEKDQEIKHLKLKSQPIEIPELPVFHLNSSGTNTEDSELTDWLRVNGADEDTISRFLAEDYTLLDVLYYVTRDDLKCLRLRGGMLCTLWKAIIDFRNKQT
# [6] = molecular target: T2, Cyclin-dependent kinase 5/CDK5 activator 1 (Homo sapiens); assay: Inhibition of CDK5/p25 assessed as residual activity of enzyme at 10 uM; format: protein-complex assay
# [7] = molecular target: Leucine-rich repeat serine/threonine-protein kinase 2 (Homo sapiens) (UniProt Q5S007); assay: Inhibition of wild type LRRK2 expressed in mouse SN4741 cells assessed as reduction in hydrogen peroxide-induced neurotoxicity at 10 uM by measuring cell survival after 48 hrs by crystal violet assay relative to control; format: cell-based
# Chain of Leucine-rich repeat serine/threonine-protein kinase 2 (Homo sapiens) (Q5S007 whole entry): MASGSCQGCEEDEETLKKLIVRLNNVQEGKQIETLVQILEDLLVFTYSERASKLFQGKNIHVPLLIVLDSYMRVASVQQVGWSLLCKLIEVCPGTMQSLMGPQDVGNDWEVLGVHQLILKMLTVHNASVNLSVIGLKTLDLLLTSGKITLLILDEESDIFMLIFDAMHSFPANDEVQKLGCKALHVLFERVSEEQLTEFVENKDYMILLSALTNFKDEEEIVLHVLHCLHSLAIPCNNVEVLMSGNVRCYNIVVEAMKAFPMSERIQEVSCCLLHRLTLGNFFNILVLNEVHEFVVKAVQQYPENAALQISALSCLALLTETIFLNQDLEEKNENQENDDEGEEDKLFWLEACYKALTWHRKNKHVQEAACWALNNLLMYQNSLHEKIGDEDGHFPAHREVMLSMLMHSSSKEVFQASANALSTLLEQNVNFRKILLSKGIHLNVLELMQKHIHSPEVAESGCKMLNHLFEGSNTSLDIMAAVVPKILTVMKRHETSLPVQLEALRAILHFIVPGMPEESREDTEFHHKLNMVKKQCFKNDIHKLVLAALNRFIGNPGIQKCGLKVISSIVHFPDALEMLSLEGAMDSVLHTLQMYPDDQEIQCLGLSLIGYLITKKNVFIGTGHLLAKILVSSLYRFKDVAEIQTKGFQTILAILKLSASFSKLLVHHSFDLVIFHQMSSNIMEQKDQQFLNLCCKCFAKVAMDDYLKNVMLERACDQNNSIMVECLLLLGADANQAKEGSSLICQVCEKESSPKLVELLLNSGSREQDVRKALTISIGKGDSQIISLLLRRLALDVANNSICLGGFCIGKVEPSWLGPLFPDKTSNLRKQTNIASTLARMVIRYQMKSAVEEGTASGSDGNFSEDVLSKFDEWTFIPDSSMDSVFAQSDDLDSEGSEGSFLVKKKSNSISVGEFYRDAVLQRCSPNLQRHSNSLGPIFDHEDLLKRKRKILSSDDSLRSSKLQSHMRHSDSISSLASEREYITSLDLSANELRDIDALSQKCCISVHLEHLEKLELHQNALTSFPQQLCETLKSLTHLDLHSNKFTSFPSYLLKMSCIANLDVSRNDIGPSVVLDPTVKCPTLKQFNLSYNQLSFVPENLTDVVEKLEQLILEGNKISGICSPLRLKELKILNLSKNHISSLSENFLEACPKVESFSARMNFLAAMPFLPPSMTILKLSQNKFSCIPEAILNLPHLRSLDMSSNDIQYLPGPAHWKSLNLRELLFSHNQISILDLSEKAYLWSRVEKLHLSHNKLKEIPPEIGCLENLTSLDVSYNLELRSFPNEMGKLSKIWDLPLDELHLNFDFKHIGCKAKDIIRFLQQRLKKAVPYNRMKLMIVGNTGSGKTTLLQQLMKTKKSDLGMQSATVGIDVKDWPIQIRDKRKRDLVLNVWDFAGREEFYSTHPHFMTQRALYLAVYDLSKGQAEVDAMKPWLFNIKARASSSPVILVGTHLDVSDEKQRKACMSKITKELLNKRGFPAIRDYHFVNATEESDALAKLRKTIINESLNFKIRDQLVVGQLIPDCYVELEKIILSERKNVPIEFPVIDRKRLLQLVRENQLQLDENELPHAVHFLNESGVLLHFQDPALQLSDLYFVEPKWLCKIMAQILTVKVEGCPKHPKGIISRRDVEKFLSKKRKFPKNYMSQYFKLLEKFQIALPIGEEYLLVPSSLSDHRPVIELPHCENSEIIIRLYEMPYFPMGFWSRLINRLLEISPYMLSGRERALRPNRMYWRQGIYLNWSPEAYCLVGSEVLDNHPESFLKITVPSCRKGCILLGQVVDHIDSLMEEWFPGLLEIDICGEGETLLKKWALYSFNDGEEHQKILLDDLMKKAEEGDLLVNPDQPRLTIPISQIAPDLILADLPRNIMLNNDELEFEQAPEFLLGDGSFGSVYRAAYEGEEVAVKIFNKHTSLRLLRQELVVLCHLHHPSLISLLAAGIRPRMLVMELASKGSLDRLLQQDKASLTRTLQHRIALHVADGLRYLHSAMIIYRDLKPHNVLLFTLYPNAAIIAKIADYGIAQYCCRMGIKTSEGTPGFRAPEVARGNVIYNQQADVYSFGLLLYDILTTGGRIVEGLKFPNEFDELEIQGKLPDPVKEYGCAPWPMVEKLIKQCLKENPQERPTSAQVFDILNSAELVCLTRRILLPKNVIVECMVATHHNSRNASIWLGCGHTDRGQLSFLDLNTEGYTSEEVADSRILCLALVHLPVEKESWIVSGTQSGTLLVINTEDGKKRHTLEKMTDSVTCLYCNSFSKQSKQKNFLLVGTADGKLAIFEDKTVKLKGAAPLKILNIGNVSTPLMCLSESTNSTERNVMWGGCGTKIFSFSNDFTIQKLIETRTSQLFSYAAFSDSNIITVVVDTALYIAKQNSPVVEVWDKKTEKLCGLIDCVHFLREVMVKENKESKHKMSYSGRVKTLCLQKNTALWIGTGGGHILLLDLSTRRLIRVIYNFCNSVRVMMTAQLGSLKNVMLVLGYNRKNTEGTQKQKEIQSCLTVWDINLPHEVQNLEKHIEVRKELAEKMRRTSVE
# T2 sequence (Q00535 whole entry): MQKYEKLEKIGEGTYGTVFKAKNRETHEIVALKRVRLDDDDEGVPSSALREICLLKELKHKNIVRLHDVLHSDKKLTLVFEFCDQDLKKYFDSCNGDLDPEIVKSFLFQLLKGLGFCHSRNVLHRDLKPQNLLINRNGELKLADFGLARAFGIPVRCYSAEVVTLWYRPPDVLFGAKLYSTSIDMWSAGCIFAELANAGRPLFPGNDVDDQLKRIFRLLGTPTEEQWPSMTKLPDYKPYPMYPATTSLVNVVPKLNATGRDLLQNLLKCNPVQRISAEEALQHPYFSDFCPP
# T2 sequence (Q15078 99-307 partner limits assumed): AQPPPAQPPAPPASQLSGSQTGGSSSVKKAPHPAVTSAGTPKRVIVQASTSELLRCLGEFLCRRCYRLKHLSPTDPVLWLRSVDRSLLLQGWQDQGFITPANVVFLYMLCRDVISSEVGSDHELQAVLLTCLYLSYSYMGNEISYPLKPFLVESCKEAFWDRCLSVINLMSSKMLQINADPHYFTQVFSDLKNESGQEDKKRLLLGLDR
# Chain of Mitogen-activated protein kinase kinase kinase 9 (Homo sapiens) (P80192 whole entry, looked up): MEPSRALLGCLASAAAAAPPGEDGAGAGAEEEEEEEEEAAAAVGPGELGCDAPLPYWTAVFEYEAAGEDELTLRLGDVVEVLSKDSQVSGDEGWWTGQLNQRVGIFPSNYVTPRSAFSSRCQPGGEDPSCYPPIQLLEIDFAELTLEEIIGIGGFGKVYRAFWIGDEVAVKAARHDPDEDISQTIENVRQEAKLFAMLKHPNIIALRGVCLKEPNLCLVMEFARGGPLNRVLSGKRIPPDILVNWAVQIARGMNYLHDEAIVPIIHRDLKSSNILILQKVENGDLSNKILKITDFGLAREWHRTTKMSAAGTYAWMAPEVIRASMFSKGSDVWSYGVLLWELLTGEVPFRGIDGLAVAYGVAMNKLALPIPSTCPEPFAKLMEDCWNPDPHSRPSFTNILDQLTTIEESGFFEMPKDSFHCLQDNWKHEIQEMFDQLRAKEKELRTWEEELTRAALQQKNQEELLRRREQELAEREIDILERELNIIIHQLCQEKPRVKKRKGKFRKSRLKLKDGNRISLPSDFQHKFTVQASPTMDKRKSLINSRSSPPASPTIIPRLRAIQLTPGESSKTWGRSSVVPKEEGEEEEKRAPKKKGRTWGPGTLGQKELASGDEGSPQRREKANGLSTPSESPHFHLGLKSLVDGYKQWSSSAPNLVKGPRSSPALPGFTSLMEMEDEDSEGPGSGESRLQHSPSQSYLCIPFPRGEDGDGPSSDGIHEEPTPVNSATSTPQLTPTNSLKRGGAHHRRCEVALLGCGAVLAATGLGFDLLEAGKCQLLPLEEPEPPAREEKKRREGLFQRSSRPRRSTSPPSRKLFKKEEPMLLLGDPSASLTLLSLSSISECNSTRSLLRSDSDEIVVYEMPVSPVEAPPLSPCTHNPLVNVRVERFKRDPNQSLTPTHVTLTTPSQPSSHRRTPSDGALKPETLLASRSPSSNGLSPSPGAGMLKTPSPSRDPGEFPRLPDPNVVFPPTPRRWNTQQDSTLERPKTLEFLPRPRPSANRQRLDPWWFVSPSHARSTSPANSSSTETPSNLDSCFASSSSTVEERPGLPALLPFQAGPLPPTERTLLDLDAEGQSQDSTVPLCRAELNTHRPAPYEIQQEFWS
# Chain of Casein kinase I isoform alpha (Homo sapiens) (P48729 2-337 limits assumed): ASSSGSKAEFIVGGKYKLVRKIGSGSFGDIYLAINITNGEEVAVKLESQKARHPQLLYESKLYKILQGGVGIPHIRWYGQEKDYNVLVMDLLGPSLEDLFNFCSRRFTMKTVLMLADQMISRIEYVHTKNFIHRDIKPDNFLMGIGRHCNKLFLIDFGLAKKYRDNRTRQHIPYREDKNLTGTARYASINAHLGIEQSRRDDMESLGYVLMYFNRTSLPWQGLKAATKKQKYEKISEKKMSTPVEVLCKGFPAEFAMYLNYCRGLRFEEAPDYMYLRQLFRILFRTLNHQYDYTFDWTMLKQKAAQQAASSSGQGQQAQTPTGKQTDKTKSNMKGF
smiles,measurement,setting,value
Cc1cc(N/N=C/c2ccncc2)nc2ccccc12,Activity,[1],59%
same,Activity,[2],84%
same,Activity,[3],12%
same,Activity,[4],81%
same,Activity,[5],94%
same,Activity,[6],97%
same,Activity,[7],50%
